We go through 18 molecules from patent US5132432A, “Chemically reactive pyrenyloxy sulfonic acid dyes” (Molecular Probes, Inc., priority 1989, dated 1992).

Counter-ions that a name gives are not always drawn.

The conditions of data set [1]: background statement; cited from earlier work.
Data set [2] can be described thus: Comparison of spectral properties of reactive dyes, Table 1. The format is physicochemical. The following applies: for ε: at first maximum; for Abs Max: first maximum; for Emission Bandwidth / Emission Bandwidth [cm^-1]: full bandwidth at half peak height; for Quantum Yield: in aqueous solution, grade in words; for % Emission at 514 nm: percent of maximum emission at 514 nm. From the text:
A number of dyes have been proposed in the literature that can be excited and detected at wavelengths less than 500 nm. Several chemically reactive fluorophores that can be excited in the near ultraviolet and short wavelength visible region of the spectrum have been described. […] These proposed tracers are derived from naphthalene derivatives such as 5-dimethylaminonaphthalene-1-sulfonic acid (Dansyl) [Weber, Biochem. J. 41:145 (1952); Rinderknecht, Experientin 16:430 (1960)], 3-(isothiocyanato)naphthalene-1,5-disulfonic acid [Braunitzer, et al., Hoppe-Seyler's Z. Physiol. […] Chem. 358:505 (1977)], pyrene derivatives such as pyrene-1-butyric acid (PBA) [Malencik & Anderson, Biochemistry 11:3022 (1972)], 8-isothiocyanatopyrene-1,3,6-trisulfonic acid (IPTS) [Braunitzer,et al., Hoppe-Seyler's Z. Physiol. Chem. 354:1536 (1973)] and 8-hydroxypyrene-1,3,6-trisulfonyl chloride [Wolfbeis, Fresenies Z. Anal. Chem. 320:271 (1985)], stilbene derivatives such as 4-acetamido-4'-isothiocyanatostilbene-2,2'-disulfonic acid (SITS) [Cornelisse & Ploem, J. Histochem. Cytochem. 24:72 (1976)], and coumarin dyes such as 3-carboxy-7-hydroxycoumarin [Baker & Collis, J. Chem. Soc. 1949, S 12 (1949)], 7-hydroxy-4-methylumbelliferone-3-acetic acid (4-MUA) [Khalfan, et al., Biochem. J. 209:265 (1983)], 7-amino-4-methylcoumarin-3-acetic acid (AMCA) [Khalfan, et al., Histochem. J. 18:497 (1986)] and 7-diethylaminocoumarin [Staines, et al. (1988)].

A short description of data set [3]: Solubility in water / aqueous solution. The note with it: solubility of the reactive form of the dye; grade in words.
Data set [4] in a line: Spectral properties (absorption/emission) of new pyrenyloxy sulfonic acid dyes, Table 4. The format is physicochemical. The following applies: 50 mM aqueous potassium phosphate buffer at pH 8.0; for Em Max: uncorrected. The procedure:
Stock solutions were prepared by accurately weighing and dissolving 5-10 mg samples of the compounds in 2.000 ml water. A 10 μl aliquot of the stock solution was diluted into 2.00 ml of 50 mM potassium phosphate buffer at pH 8.0. Absorbance solutions were prepared by further diluting 200 μl of the diluted stock solution to 2.000 ml with 50 mM potassium phosphate buffer at pH 8.0. Absorption data was collected on an IBM Model 9420 UV/Visible Spectrophotometer and extinction coefficients were determined by standard Beer's Law calculations.
Uncorrected fluorescence data was obtained on a Perkin-Elmer Model 650-40 Fluorescence Spectrophotometer equipped with a Perkin-Elmer/Hitachi 057 X-Y Recorder using a ten- to twentyfold dilution of the absorbance solutions. Fluorescence of the pyrenyloxy sulfonic acid dyes was determined for the reactive dyes and for their conjugates with model compounds by dissolving the dye at a concentration above 1×10^-8M in an appropriate solvent such as water, methanol, ethanol, or dimethylsulfoxide and measurement of the fluorescence in a suitable instrument, such as a fluorescence spectrometer or fluorescence microscope or flow cytometer. Fluorescence could also be observed for the dyes in solution by visual inspection with illumination by a suitable source that emits light at wavelengths of less than 420 nm.

Data set [5] can be described thus: Quantum yield relative to quinine sulfate. Format: physicochemical. The following applies: in water. From the text:
An estimate of the quantum yield of the dyes relative to quinine sulfate (quantum yield=0.55 in 1N sulfuric acid) was obtained by integrating the emission spectrum of the dye excited at the same wavelength and optical density as the standard.

Where [6] appears, read: first (longer-wavelength) maximum.
The mark [7] stands for this setting: second (shorter-wavelength) maximum.

`Cc1c(CC(=O)ON2C(=O)CCC2=O)c(=O)oc2cc(N)ccc12` [succinimidyl ester of AMCA]: the “aqueous solubility / lipophilicity” value in data set [1] was “quite lipophilic and insoluble in the aqueous solutions”.

On to `O=S(=O)(O)c1cc(N=C=S)c2ccc3c(S(=O)(=O)O)cc(S(=O)(=O)O)c4ccc1c2c34` [IPTS, 8-isothiocyanatopyrene-1,3,6-trisulfonic acid], for which, in data set [2], the “Em. Max.” value is listed as 458 nm, the ε is 25600 M⁻¹ cm⁻¹, the “Abs Max” value was found to be 373 nm and the “Emission Bandwidth” value stood at 78 nm. In addition, in data set [2], the “Emission Bandwidth [cm^-1]” value is 3634 cm⁻¹, the “Quantum Yield” value is recorded as “low” and the “% Emission at 514 nm” value was 38 % of max. Moreover, the “Water Solubility” value in data set [3] was “high”.

Turning to `O=C(CCCc1ccc2ccc3cccc4ccc1c2c34)ON1C(=O)CCC1=O` [succinimidyl pyrene-1-butyrate], the “aqueous solubility / lipophilicity” value in data set [1] was “quite lipophilic and insoluble in the aqueous solutions”.

As to `NCCNC(=O)COc1cc(S(=O)(=O)O)c2ccc3c(S(=O)(=O)O)cc(S(=O)(=O)O)c4ccc1c2c43` [Compound 3, 1,3,6-Trisulfo-8-pyrenyloxyacetamido-1-(2-aminoethane), trisodium salt], in data set [4], the “Emission Band-width” value was 50 nm and the “Emission at 514 nm” value is reported as 4.9 % of max. The “Abs Max” value in data set [4] (setting [6]) is reported as 399 nm.

`CC(C)(C)OC(=O)N1CCC[C@H]1C(=O)NCCCCCNC(=O)COc1cc(S(=O)(=O)O)c2ccc3c(S(=O)(=O)O)cc(S(=O)(=O)O)c4ccc1c2c43` [Compound 15]: in data set [4], the “Emission Band-width” value came to 50 nm and the “Emission at 514 nm” value is 3.0 % of max. In data set [4] (setting [6]), the “Abs Max” value came out at 399 nm. Besides, the “Abs Max” value in data set [4] (setting [7]) is 377 nm.

In the case of `N#CCCCCCNC(=O)COc1cc(S(=O)(=O)O)c2ccc3c(S(=O)(=O)O)cc(S(=O)(=O)O)c4ccc1c2c43` [Compound 16], in data set [4], the “Emission Band-width” value was 49 nm and the “Emission at 514 nm” value is recorded as 3.0 % of max. Moreover, in data set [4] (setting [6]), the “Abs Max” value was found to be 399 nm. Also, the “Abs Max” value in data set [4] (setting [7]) is 377 nm.

With `O=C(O)COc1cc(S(=O)(=O)[O-])c2ccc3c(S(=O)(=O)[O-])cc(S(=O)(=O)[O-])c4ccc1c2c43.[Na+].[Na+].[Na+]` [Compound 2, 1,3,6-Trisulfo-8-pyrenyloxyacetic acid, trisodium salt], in data set [4], the “Emission Band-width” value is given as 52 nm, the “Emission at 514 nm” value is reported as 5.8 % of max and the “Em Max” value came to 430 nm. Moreover, the ε in data set [4] (at first maximum) is 27.0 10^3 M^-1 cm^-1. For the same molecule, the ε in data set [4] (at second maximum) is 19.8 10^3 M^-1 cm^-1. Also, in data set [4] (setting [7]), the “Abs Max” value is recorded as 374 nm. In addition, in data set [5], the Quantum Yield entry is recorded as “greater than 0.90”.

As for `NCCCCCNC(=O)COc1cc(S(=O)(=O)O)c2ccc3c(S(=O)(=O)O)cc(S(=O)(=O)O)c4ccc1c2c43` [Compound 4, 1-(1,3,6-Trisulfo-8-pyrenloxyacetamido)-(5-aminopentane), trisodium salt], in data set [4], the “Emission Band-width” value is 50 nm, the “Emission at 514 nm” value is 3.9 % of max and the “Em Max” value stood at 422 nm. Moreover, in data set [4] (at first maximum), the ε was 27.6 10^3 M^-1 cm^-1. The ε in data set [4] (at second maximum) is recorded as 22.8 10^3 M^-1 cm^-1. For the same molecule, in data set [4] (setting [7]), the “Abs Max” value came to 377 nm. In addition, the Quantum Yield entry in data set [5] is “greater than 0.90”.

With `COC(=O)COc1cc(OCC(=O)OC)c2ccc3c(S(=O)(=O)O)cc(S(=O)(=O)O)c4ccc1c2c43` [Compound 21, Dimethyl 1,3-disulfo-6-carboxymethoxy-8-pyrenyloxyacetic acid, disodium salt], in data set [4], the “Emission Band-width” value was found to be 55 nm, the “Emission at 514 nm” value is on record as 13.0 % of max and the “Em Max” value stood at 447 nm. In addition, in data set [4] (at first maximum), the ε was 24.5 10^3 M^-1 cm^-1. Further, the “Abs Max” value in data set [4] (setting [6]) came out at 396 nm.

Take `NNC(=O)COc1cc(S(=O)(=O)O)c2ccc3c(S(=O)(=O)O)cc(S(=O)(=O)O)c4ccc1c2c43` [Compound 11, 1,3,6-Trisulfo-8-pyrenyloxyacethydrazide, free sulfonic acid]: the “Emission Band-width” value in data set [4] was determined as 51 nm. Besides, the “Abs Max” value was found to be 399 nm in data set [4] (setting [6]) and 377 nm in data set [4] (setting [7]).

On to `O=C(COc1cc(S(=O)(=O)O)c2ccc3c(S(=O)(=O)O)cc(S(=O)(=O)O)c4ccc1c2c43)NCCO` [Compound 10], for which, in data set [4], the “Emission Band-width” value turned out to be 50 nm and the “Emission at 514 nm” value is 3.3 % of max. Also, the “Abs Max” value in data set [4] (setting [6]) is listed as 399 nm. Also, in data set [4] (setting [7]), the “Abs Max” value came to 377 nm.

Regarding `[N-]=[N+]=Nc1ccc(C(=O)NCCCCCNC(=O)COc2cc(S(=O)(=O)[O-])c3ccc4c(S(=O)(=O)[O-])cc(S(=O)(=O)[O-])c5ccc2c3c54)cc1.[Na+].[Na+].[Na+]` [Compound 20, N-(1,3,6-Trisulfo-8-pyrenyloxyacetyl)-N'-(4-azidobenzoyl)-1,5-pentanediamine, trisodium salt], in data set [4], the “Emission Band-width” value worked out at 50 nm, the “Emission at 514 nm” value was 3.5 % of max and the “Em Max” value came out at 424 nm. Besides, the “Abs Max” value in data set [4] (setting [6]) was 400 nm.

In the case of `CC(C)(C)OC(=O)N1CCC[C@H]1C(=O)NCCNC(=O)COc1cc(S(=O)(=O)[O-])c2ccc3c(S(=O)(=O)[O-])cc(S(=O)(=O)[O-])c4ccc1c2c43.[Na+].[Na+].[Na+]` [Compound 14, N-(1,3,6-Trisulfo-8-pyrenyloxyacetyl)-N'-(N-t-butoxycarbonyl-L-prolyl)-1,2-ethanediamine, trisodium salt], in data set [4], the “Emission Band-width” value is recorded as 49 nm, the “Emission at 514 nm” value is 2.8 % of max and the “Em Max” value was determined as 422 nm. Further, the “Abs Max” value in data set [4] (setting [6]) is on record as 399 nm. Moreover, the Quantum Yield result in data set [5] is “greater than 0.90”.

As for `O=C(O)CCCc1ccc2ccc3cccc4ccc1c2c34` [PBA, pyrene-1-butyric acid], in data set [2], the “Em. Max.” value was 377 nm, the ε came out at 45100 M⁻¹ cm⁻¹, the “Abs Max” value was found to be 341 nm and the “Quantum Yield” value is recorded as “low”. In addition, in data set [2], the “% Emission at 514 nm” value is recorded as 2 % of max. Further, the “Water Solubility” value in data set [3] was “low”.

`N.N.N.NNC(=O)COc1cc(S(=O)(=O)O)c2ccc3c(S(=O)(=O)O)cc(S(=O)(=O)O)c4ccc1c2c43` [Compound 13, 1,3,6-Trisulfo-8-pyrenyloxyacethydrazide, triammonium salt]: in data set [4], the “Emission Band-width” value worked out at 50 nm and the “Emission at 514 nm” value is reported as 3.8 % of max. In addition, the “Abs Max” value in data set [4] (setting [6]) stood at 399 nm. Further, the “Abs Max” value in data set [4] (setting [7]) came out at 376 nm.

Regarding `C=CC(=O)NCCCCCNC(=O)COc1cc(S(=O)(=O)O)c2ccc3c(S(=O)(=O)O)cc(S(=O)(=O)O)c4ccc1c2c43` [Compound 19], in data set [4], the “Emission Band-width” value stood at 49 nm and the “Emission at 514 nm” value is on record as 2.9 % of max. Moreover, in data set [4] (setting [6]), the “Abs Max” value was determined as 399 nm.

For `CN(C)c1cccc2c(S(=O)(=O)O)cccc12` [Dansyl, 5-dimethylaminonaphthalene-1-sulfonic acid], in data set [2], the “Em. Max.” value is 578 nm, the ε amounted to 4500 M⁻¹ cm⁻¹, the “Abs Max” value is 340 nm and the “Quantum Yield” value is “low”. Further, the “Water Solubility” value in data set [3] is “low”.

Regarding `Cc1c(CC(=O)O)c(=O)oc2cc(N)ccc12` [AMCA, 7-amino-4-methylcoumarin-3-acetic acid], in data set [2], the “Em. Max.” value stood at 442 nm, the ε is 15200 M⁻¹ cm⁻¹, the “Abs Max” value is 354 nm and the “Emission Bandwidth” value is 57 nm. Moreover, in data set [2], the “Emission Bandwidth [cm^-1]” value worked out at 2858 cm⁻¹, the “Quantum Yield” value was “med” and the “% Emission at 514 nm” value is listed as 12 % of max. Besides, the “Water Solubility” value in data set [3] is recorded as “low”.
